Counter-ions that a name gives are not always drawn.
Target: T1, human PAH with the R408W mutation (Homo sapiens, UniProt P00439, R408W)
T1 construct: expressed in transfected cells
T1 sequence (P00439 1-452 R408W): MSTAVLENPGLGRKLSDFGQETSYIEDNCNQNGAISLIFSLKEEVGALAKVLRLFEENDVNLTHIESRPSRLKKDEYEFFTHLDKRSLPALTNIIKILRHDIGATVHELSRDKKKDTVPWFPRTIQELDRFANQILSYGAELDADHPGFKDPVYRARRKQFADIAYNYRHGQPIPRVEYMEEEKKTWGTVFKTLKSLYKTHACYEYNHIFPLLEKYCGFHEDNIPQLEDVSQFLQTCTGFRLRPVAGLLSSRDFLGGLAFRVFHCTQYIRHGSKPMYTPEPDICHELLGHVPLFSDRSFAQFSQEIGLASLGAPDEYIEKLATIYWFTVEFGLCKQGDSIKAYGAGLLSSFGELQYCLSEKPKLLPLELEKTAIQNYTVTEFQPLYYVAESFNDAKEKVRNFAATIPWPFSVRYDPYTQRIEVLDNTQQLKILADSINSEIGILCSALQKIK
Experiment: Cell Based Phenylalanine Flux Assay
Conditions: A375 cells expressing human R408W PAH; 24 hrs compound incubation; 13C-Tyrosine by LC-MS; average where tested multiple times; read-out: AC50

AC50 | Structure (SMILES)
0.5 to 1 µM | O=C(CCc1nccs1)N1CCc2[nH]cnc2[C@H]1c1nc2ccccc2[nH]1 [Example 900, (S)-1-(4-(1H-benzo[d]imidazol-2-yl)-6,7-dihydro-1H-imidazo[4,5-c]pyridin-5(4H)-yl)-3-(thiazol-2-yl)propan-1-one]
> 5 µM | O=C(CCc1nccs1)N1CCc2[nH]cnc2[C@@H]1c1nc2ccccc2[nH]1 [Example 901, (R)-1-(4-(1H-benzo[d]imidazol-2-yl)-6,7-dihydro-1H-imidazo[4,5-c]pyridin-5(4H)-yl)-3-(thiazol-2-yl)propan-1-one]
> 5 µM | O=C(c1nccs1)N1CCc2[nH]cnc2[C@@H]1c1nc2ccccc2[nH]1 [Example 902, (R)-(4-(1H-benzo[d]imidazol-2-yl)-6,7-dihydro-1H-imidazo[4,5-c]pyridin-5(4H)-yl)(thiazol-2-yl)methanone]
0.5 to 1 µM | O=C(c1nccs1)N1CCc2[nH]cnc2[C@H]1c1nc2ccccc2[nH]1 [Example 903, (S)-(4-(1H-benzo[d]imidazol-2-yl)-6,7-dihydro-1H-imidazo[4,5-c]pyridin-5(4H)-yl)(thiazol-2-yl)methanone]
1 to 5 µM | O=C(Cc1nc2ccccc2s1)N1CCc2[nH]cnc2[C@H]1c1nc2ccccc2[nH]1 [Example 905]
1 to 5 µM | CC(C)(C)CCC(=O)N1CCc2[nH]cnc2[C@@H]1c1nc2ccccc2[nH]1 [Example 906, (R)-1-(4-(1H-benzo[d]imidazol-2-yl)-6,7-dihydro-1H-imidazo[4,5-c]pyridin-5(4H)-yl)-4,4-dimethylpentan-1-one]
< 0.5 µM | CC(C)(C)CCC(=O)N1CCc2[nH]cnc2[C@H]1c1nc2ccccc2[nH]1 [Example 907, (S)-1-(4-(1H-benzo[d]imidazol-2-yl)-6,7-dihydro-1H-imidazo[4,5-c]pyridin-5(4H)-yl)-4,4-dimethylpentan-1-one]
< 0.5 µM | O=C(CCc1nccs1)N1CCc2[nH]cnc2[C@H]1c1nc2ccc(Br)cc2[nH]1 [Example 908, (S)-1-(4-(6-bromo-1H-benzo[d]imidazol-2-yl)-6,7-dihydro-1H-imidazo[4,5-c]pyridin-5(4H)-yl)-3-(thiazol-2-yl)propan-1-one]
> 5 µM | O=C(CCc1nccs1)N1CCc2[nH]cnc2[C@@H]1c1nc2ccc(Br)cc2[nH]1 [Example 909, (R)-1-(4-(6-bromo-1H-benzo[d]imidazol-2-yl)-6,7-dihydro-1H-imidazo[4,5-c]pyridin-5(4H)-yl)-3-(thiazol-2-yl)propan-1-one]

Same assay, conditions: A375 cells expressing human R408W PAH; 24 hrs with compound; 13C-Tyrosine by LC-MS; average where tested multiple times; read-out: AC50

Structure (SMILES) | AC50
O=C(c1ncco1)N1CCc2[nH]cnc2[C@H]1c1nc2ccccc2[nH]1 [(S)-(4-(1H-benzo[d]imidazol-2-yl)-1,4,6,7-tetrahydro-5H-imidazo[4,5-c]pyridin-5-yl)(oxazol-2-yl)methanone] | 1 to 5 µM
O=C(c1cnco1)N1CCc2[nH]cnc2[C@H]1c1nc2ccccc2[nH]1 [(S)-(4-(1H-benzo[d]imidazol-2-yl)-1,4,6,7-tetrahydro-5H-imidazo[4,5-c]pyridin-5-yl)(oxazol-5-yl)methanone] | 1 to 5 µM
Cn1cc(-c2ncc(C(=O)N3CCc4[nH]cnc4[C@H]3c3nc4ccccc4[nH]3)o2)cn1 [(S)-(4-(1H-benzo[d]imidazol-2-yl)-6,7-dihydro-1H-imidazo[4,5-c]pyridin-5(4H)-yl)(2-(1-methyl-1H-pyrazol-4-yl)oxazol-5-yl)methanone hydrochloride] | > 5 µM
Cn1cc(-c2ncc(C(=O)N3CCc4[nH]cnc4[C@H]3c3nc4ccccc4[nH]3)s2)cn1 [(S)-(4-(1H-benzo[d]imidazol-2-yl)-6,7-dihydro-1H-imidazo[4,5-c]pyridin-5(4H)-yl)(2-(1-methyl-1H-pyrazol-4-yl)thiazol-5-yl)methanone] | > 5 µM
Cc1nc(C(C)(C)O)oc1C(=O)N1CCc2[nH]cnc2[C@H]1c1nc2ccccc2[nH]1 [(S)-(4-(1H-benzo[d]imidazol-2-yl)-6,7-dihydro-1H-imidazo[4,5-c]pyridin-5(4H)-yl)(2-(2-hydroxypropan-2-yl)-4-methyloxazol-5-yl)methanone] | > 5 µM
CC(C)(O)c1ncc(C(=O)N2CCc3[nH]cnc3[C@H]2c2nc3ccccc3[nH]2)o1 [(S)-(4-(1H-benzo[d]imidazol-2-yl)-6,7-dihydro-1H-imidazo[4,5-c]pyridin-5(4H)-yl)(2-(2-hydroxypropan-2-yl)oxazol-5-yl)methanone] | > 5 µM
CC(C)(O)c1nc(C2CC2)c(C(=O)N2CCc3[nH]cnc3[C@H]2c2nc3ccccc3[nH]2)o1 [(S)-(4-(1H-benzo[d]imidazol-2-yl)-6,7-dihydro-1H-imidazo[4,5-c]pyridin-5(4H)-yl)(4-cyclopropyl-2-(2-hydroxypropan-2-yl)oxazol-5-yl)methanone] | 1 to 5 µM
O=C(c1nc2cc(F)ccc2s1)N1CCc2[nH]cnc2[C@H]1c1nc2ccccc2[nH]1 [(S)-(4-(1H-benzo[d]imidazol-2-yl)-6,7-dihydro-1H-imidazo[4,5-c]pyridin-5(4H)-yl)(5-fluorobenzo[d]thiazol-2-yl)methanone] | 1 to 5 µM
O=C(c1nc2ccc(F)cc2s1)N1CCc2[nH]cnc2[C@H]1c1nc2ccccc2[nH]1 [(S)-(4-(1H-benzo[d]imidazol-2-yl)-6,7-dihydro-1H-imidazo[4,5-c]pyridin-5(4H)-yl)(6-fluorobenzo[d]thiazol-2-yl)methanone] | 1 to 5 µM
COc1ccc2c(C(=O)N3CCc4[nH]cnc4[C@H]3c3nc4ccccc4[nH]3)cnn2c1 [(S)-(4-(1H-benzo[d]imidazol-2-yl)-6,7-dihydro-1H-imidazo[4,5-c]pyridin-5(4H)-yl)(6-methoxypyrazolo[1,5-a]pyridin-3-yl)methanone] | 1 to 5 µM
Cc1ccc2c(C(=O)N3CCc4[nH]cnc4[C@H]3c3nc4ccccc4[nH]3)cnn2c1 [(S)-(4-(1H-benzo[d]imidazol-2-yl)-6,7-dihydro-1H-imidazo[4,5-c]pyridin-5(4H)-yl)(6-methylpyrazolo[1,5-a]pyridin-3-yl)methanone] | 1 to 5 µM
O=C(C1CCC1)N1CCc2[nH]cnc2[C@H]1c1nc2ccccc2[nH]1 [(S)-(4-(1H-benzo[d]imidazol-2-yl)-6,7-dihydro-1H-imidazo[4,5-c]pyridin-5(4H)-yl)(cyclobutyl)methanone] | 1 to 5 µM

Now from value to compound:

AC50 | Structure (SMILES)
1 to 5 µM | O=C(c1ccon1)N1CCc2[nH]cnc2[C@H]1c1nc2ccccc2[nH]1 [(S)-(4-(1H-benzo[d]imidazol-2-yl)-1,4,6,7-tetrahydro-5H-imidazo[4,5-c]pyridin-5-yl)(isoxazol-3-yl)methanone]
1 to 5 µM | O=C(c1ccccn1)N1CCc2[nH]cnc2[C@H]1c1nc2ccccc2[nH]1 [(S)-(4-(1H-benzo[d]imidazol-2-yl)-1,4,6,7-tetrahydro-5H-imidazo[4,5-c]pyridin-5-yl)(pyridin-2-yl)methanone]
> 5 µM | O=C(c1cc2cccnn2c1)N1CCc2[nH]cnc2[C@H]1c1nc2ccccc2[nH]1 [(S)-(4-(1H-benzo[d]imidazol-2-yl)-1,4,6,7-tetrahydro-5H-imidazo[4,5-c]pyridin-5-yl)(pyrrolo[1,2-b]pyridazin-6-yl)methanone]
1 to 5 µM | O=C(c1cscn1)N1CCc2[nH]cnc2[C@H]1c1nc2ccccc2[nH]1 [(S)-(4-(1H-benzo[d]imidazol-2-yl)-1,4,6,7-tetrahydro-5H-imidazo[4,5-c]pyridin-5-yl)(thiazol-4-yl)methanone]
1 to 5 µM | O=C(c1cnc(-c2ccccn2)o1)N1CCc2[nH]cnc2[C@H]1c1nc2ccccc2[nH]1 [(S)-(4-(1H-benzo[d]imidazol-2-yl)-6,7-dihydro-1H-imidazo[4,5-c]pyridin-5(4H)-yl)(2-(pyridin-2-yl)oxazol-5-yl)methanone]
1 to 5 µM | O=C(c1cnn2ccc(Cl)cc12)N1CCc2[nH]cnc2[C@H]1c1nc2ccccc2[nH]1 [(S)-(4-(1H-benzo[d]imidazol-2-yl)-6,7-dihydro-1H-imidazo[4,5-c]pyridin-5(4H)-yl)(5-chloropyrazolo[1,5-a]pyridin-3-yl)methanone]
1 to 5 µM | COc1ccn2ncc(C(=O)N3CCc4[nH]cnc4[C@H]3c3nc4ccccc4[nH]3)c2c1 [(S)-(4-(1H-benzo[d]imidazol-2-yl)-6,7-dihydro-1H-imidazo[4,5-c]pyridin-5(4H)-yl)(5-methoxypyrazolo[1,5-a]pyridin-3-yl)methanone]
1 to 5 µM | Cc1ccn2ncc(C(=O)N3CCc4[nH]cnc4[C@H]3c3nc4ccccc4[nH]3)c2c1 [(S)-(4-(1H-benzo[d]imidazol-2-yl)-6,7-dihydro-1H-imidazo[4,5-c]pyridin-5(4H)-yl)(5-methylpyrazolo[1,5-a]pyridin-3-yl)methanone]
1 to 5 µM | O=C(c1ccno1)N1CCc2[nH]cnc2[C@H]1c1nc2ccccc2[nH]1 [(S)-(4-(1H-benzo[d]imidazol-2-yl)-6,7-dihydro-1H-imidazo[4,5-c]pyridin-5(4H)-yl)(isoxazol-5-yl)methanone]
1 to 5 µM | O=C(c1cocn1)N1CCc2[nH]cnc2[C@H]1c1nc2ccccc2[nH]1 [(S)-(4-(1H-benzo[d]imidazol-2-yl)-6,7-dihydro-1H-imidazo[4,5-c]pyridin-5(4H)-yl)(oxazol-4-yl)methanone]
> 5 µM | O=C(c1cc2ccccn2n1)N1CCc2[nH]cnc2[C@H]1c1nc2ccccc2[nH]1 [(S)-(4-(1H-benzo[d]imidazol-2-yl)-6,7-dihydro-1H-imidazo[4,5-c]pyridin-5(4H)-yl)(pyrazolo[1,5-a]pyridin-2-yl)methanone]
